According to patent US20260206762A1, “PYRIMIDINONE DERIVATIVES AS PESTICIDAL COMPOUNDS” (BASF SE, priority 2022, published 2026):

Legend:
[1] = test system: diamond back moth (Plutella xylostella); assay: Diamond back moth (Plutella xylostella) cabbage leaf disc dip test; assay type: in vivo; settings: for Test according to B.4 (Plutella xylostella) @ 10 ppm: comparison data; for mortality at 800 ppm: Plutella xylostella, foliar, 3rd instar larvae, 72 hours after treatment, read-out: mortality in comparison with untreated controls
Protocol: B.4 Diamond Back Moth (Plutella xylostella)
The active compound is dissolved at the desired concentration in a mixture of 1:1 (vol:vol) distilled water: acetone. Surfactant (Kinetic) is added at a rate of 0.01% (vol/vol). The test solution is prepared at the day of use. Cabbage leaf discs (60 mm in diameter) are dipped in test solution and air-dried. Treated leaves are placed in petri dishes lined with moistened filter paper and inoculated with ten 3rd instar larvae. Mortality is recorded 72 hours after treatment. Feeding damage is also recorded using a scale of 0-100%.

[2] = test system: green peach aphid (Myzus persicae); assay: Green peach aphid (Myzus persicae) systemic artificial diet test; assay type: in vivo; settings: 72 h, aphid mortality after 3 days, read-out: mortality in comparison with untreated controls
Excerpt: B.3 Green Peach Aphid (Myzus persicae)
For evaluating control of green peach aphid (Myzus persicae) through systemic means the test unit consisted of 96-well-microtiter plates containing liquid artificial diet under an artificial membrane. The compounds were formulated using a solution containing 75% v/v water and 25% v/v DMSO. Different concentrations of formulated compounds were pipetted into the aphid diet, using a custom built pipetter, at two replications. After application, 5-8 adult aphids were placed on the artificial membrane inside the microtiter plate wells. The aphids were then allowed to suck on the treated aphid diet and incubated at about 23±1° C. and about 50±5% relative humidity for 3 days. Aphid mortality and fecundity was then visually assessed.

[3] = test system: tobacco budworm (Heliothis virescens); assay: Tobacco budworm (Heliothis virescens) microtiter diet test, egg and larval mortality; assay type: in vivo; settings: 120 h, egg and larval mortality after 5 days, read-out: mortality in comparison with untreated controls
Protocol: B.2 Tobacco Budworm (Heliothis virescens)
(§1) For evaluating control of tobacco budworm (Heliothis virescens) the test unit consisted of 96-well-microtiter plates containing an insect diet and 15-25 H. virescens eggs. The compounds were formulated using a solution containing 75% v/v water and 25% v/v DMSO. Different concentrations of formulated compounds were sprayed onto the insect diet at 10 μl, using a custom-built micro atomizer, at two replications. After application, microtiter plates were incubated at about 28±1° C. and about 80±5% relative humidity for 5 days. Egg and larval mortality was then visually assessed.

[4] = test system: boll weevil (Anthonomus grandis); assay: Boll weevil (Anthonomus grandis) microtiter diet test, egg and larval mortality; assay type: in vivo; settings: 120 h, egg and larval mortality after 5 days, read-out: mortality in comparison with untreated controls
Protocol: B.1 Boll Weevil (Anthonomus grandis)
as §1, with “boll weevil (Anthonomus grandis)” for “tobacco budworm (Heliothis virescens)”, “5-10 A. grandis” for “15-25 H. virescens”, “5” for “10”, “25±1°” for “28±1°”, “75±5%” for “80±5%”

[5] = test system: southern armyworm (Spodoptera eridania), 2nd instar larvae; assay: whole plant or invertebrate; settings: in Phaseolus lunatus, foliar, 96 h, read-out: mortality in comparison with untreated controls
Protocol: B.5 Southern Armyworm (Spodoptera eridania), 2nd Instar Larvae
The 10,000 ppm solution was serially diluted in 100% cyclohexanone to make interim solutions. These served as stock solutions for which final dilutions were made by the Tecan in 50% acetone:50% water (v/v) into 10 or 20 ml glass vials. A nonionic surfactant (Kinetic®) was included in the solution at a volume of 0.01% (v/v). The vials were then inserted into an automated electrostatic sprayer equipped with an atomizing nozzle for application to plants/insects. Lima bean plants (variety Sieva) were grown 2 plants to a pot and selected for treatment at the 1st true leaf stage. Test solutions were sprayed onto the foliage by an automated electrostatic plant sprayer equipped with an atomizing spray nozzle. The plants were dried in the sprayer fume hood and then removed from the sprayer. Each pot was placed into perforated plastic bags with a zip closure. Ten to 11 armyworm larvae were placed into the bag and the bags zipped closed. Test plants were maintained in a growth room at about 25° C. and about 20-40% relative humidity for 4 days, avoiding direct exposure to fluorescent light (14:10 light:dark photoperiod) to prevent trapping of heat inside the bags. Mortality and reduced feeding were assessed 4 days after treatment, compared to untreated control plants.

Compound	Test according to B.4 (Plutella xylostella) @ 10 ppm [1]	mortality at 800 ppm [2]	mortality at 800 ppm [3]	mortality at 800 ppm [1]	mortality at 800 ppm [4]	mortality at 300 ppm [5]
CCS(=O)(=O)c1cc(C(C)(C)C#N)cnc1-c1cn2c(=O)n(C3CC3)c(C(F)(F)F)cc2n1 [Compound C.4, reference compound]	25%	–	–	–	–	–
CCS(=O)(=O)c1cc(-c2ccc(F)cc2)cnc1-c1cn2c(=O)n(C3CC3)c(Cl)cc2n1 [I.1, 7-chloro-6-cyclopropyl-2-[3-ethylsulfonyl-5-(4-fluorophenyl)-2-pyridyl]imidazo[1,2-c]pyrimidin-5-one]	–	> 75%	> 75%	> 75%	> 75%	> 75%
CCS(=O)(=O)c1cc(C(C)(C)C#N)cnc1-c1cn2c(=O)n(C3CC3)c(Cl)cc2n1 [I.3]	100%	> 75%	–	> 75%	> 75%	> 75%
CCS(=O)(=O)c1cc(-c2ccc(F)cc2)cnc1-c1cn2c(=O)n(C3CC3)c(Br)cc2n1 [I.4, 7-bromo-6-cyclopropyl-2-[3-ethylsulfonyl-5-(4-fluorophenyl)-2-pyridyl]imidazo[1,2-c]pyrimidin-5-one]	–	> 75%	> 75%	> 75%	> 75%	> 75%
CCS(=O)(=O)c1cc(-c2ccc(F)cc2)c(C)nc1-c1cn2c(=O)n(C3CC3)c(Cl)cc2n1 [I.5, 7-chloro-6-cyclopropyl-2-[3-ethylsulfonyl-5-(4-fluorophenyl)-6-methyl-2-pyridyl]imidazo[1,2-c]pyrimidin-5-one]	–	> 75%	> 75%	> 75%	> 75%	> 75%
